Experimental data from patent US20240122865A1, “Methods of Protecting RNA” (Pfizer Inc., priority 2021, published 2024).
Where “and” joins values, the source holds several entries; their conditions need not be identical. Identical values can stand only once.

Tested on: Chi18 mRNA construct
Assay: Size Exclusion Base Hydrolysis Degradation Assay, Chi18
Assay type: biochemical, Trichoderma atroviride
Conditions: for T0 R1 peak area at 250 nm: Chi18 0.1 mg/mL, 25 mM amino acid, 50 mM CAPS, T=0, replicate 1; for T2 Avg, peak area as percentage of T=0 / T2 R1 peak area at 250 nm / T10 Avg, peak area as percentage of T=0 / T10 R1 peak area at 250 nm / T24 Avg, peak area as percentage of T=0 / T24 R1 peak area at 250 nm / T0 Avg, peak area as percentage of T=0: Chi18, 25 mM amino acid; for T2 Avg, peak area as percentage of T=0 / T2 R1 peak area at 250 nm / T10 Avg, peak area as percentage of T=0 / T10 R1 peak area at 250 nm / T24 Avg, peak area as percentage of T=0 / T24 R1 peak area at 250 nm: 50 mM CAPS pH 11, room temperature; for T2 Avg, peak area as percentage of T=0 / T2 R1 peak area at 250 nm: 2 hrs; for T2 R1 peak area at 250 nm / T10 R1 peak area at 250 nm / T24 R1 peak area at 250 nm: replicate 1; for T10 Avg, peak area as percentage of T=0 / T10 R1 peak area at 250 nm: 10 hrs; for T24 Avg, peak area as percentage of T=0 / T24 R1 peak area at 250 nm: 24 hrs; for T0 Avg, peak area as percentage of T=0: T=0 (reference)
Method: Basic assay procedure: RNA samples were diluted to 1.0 mg/mL in DNAase/RNAase free water. Amino acids were dissolved in water to a stock solution of 100 mM and a solution of 500 mM CAPS pH 11 was used. The two mRNA constructs tested were FgenL and Chi18. Each individual sample volume was 50 μL. To determine the amount of 1 M NaOH needed to adjust the final pH to 11.0 after the addition of all sample components, the sample volume was increased 100 fold (5 mL), the volume of 1 M NaOH recorded and this value was translated back down to the 50 μL sample volume.
The mRNA and amino acid were allowed to incubate for one hour prior to the addition of CAPS pH 11. All steps of the assay were conducted at room temperature.
Degradation reaction: After the CAPS addition, the samples were injected onto the Waters H-Class UPLC system to record the first timepoint, T=O. This resulting chromatogram was processed by integrating the area of absorbance at 250 nm for the mRNA construct. Immediately following this timepoint, the pH was adjusted to 11. Subsequent time points (2 hrs, 10 hrs, and 24 hrs) recorded the Absorbance Units (peak area) at 250 nm as a percentage of the peak area determined at T=O. Integration of the chromatogram for subsequent timepoints was conducted by analyzing the area of absorbance at 250 nm contained within the same time window in which the peak eluted in T=0 for the 100% intact mRNA.

Row | SMILES | T0 R1 peak area at 250 nm | T2 Avg, peak area as percentage of T=0 | T2 R1 peak area at 250 nm | T10 Avg, peak area as percentage of T=0 | T10 R1 peak area at 250 nm | T24 Avg, peak area as percentage of T=0 | T24 R1 peak area at 250 nm | T0 Avg, peak area as percentage of T=0 | T0 R1 peak area at 250 nm (listed as Cys) | T2 R1 peak area at 250 nm (listed as Cys) | T2 Avg, peak area as percentage of T=0 (listed as Cys)
1 | N[C@@H](CC(=O)O)C(=O)O [Aspartic acid] | 11079 | 69.4% | 7643 | 0.0% | 0 | 0.0% | 0 | 100.0% | – | – | –
2 | CSCC[C@H](N)C(=O)O [Methionine] | 17259 | 63.5% | 8392 | 40.1% | 6837 | 0.0% | 0 | 100.0% | – | – | –
3 | N[C@@H](Cc1c[nH]cn1)C(=O)O [Histidine] | 27170 | 152.8% | 14612 | 2.8% | 1391 | 0.0% | 0 | 100.0% | – | – | –
4 | CC(C)C[C@H](N)C(=O)O [Leucine] | 43979 | 60.6% | 23370 | 26.2% | 10474 | 0.0% | 0 | 100.0% | – | – | –
5 | O=C(O)[C@@H]1CCCN1 [Proline] | 12033 | 72.0% | 7330 | 28.5% | 2712 | 0.0% | 0 | 100.0% | – | – | –
6 | N[C@@H](Cc1ccc(O)cc1)C(=O)O [Tyrosine] | 21493 | 90.9% | 22110 | 56.8% | 14946 | 37.6% | 10375 | 100.0% | – | – | –
7 | N[C@@H](Cc1ccccc1)C(=O)O [Phenylalanine] | 30537 | 72.1% | 22175 | 16.3% | 3615 | 0.0% | 0 | 100.0% | – | – | –
8 | NC(=O)CC[C@H](N)C(=O)O [Glutamine] | 25301 | 51.1% | 10030 | 0.0% | 0 | 0.0% | 0 | 100.0% | – | – | –
9 | C[C@@H](O)[C@H](N)C(=O)O [Threonine] | 39202 | 74.6% | 28759 | 26.0% | 10963 | 0.0% | 0 | 100.0% | – | – | –
10 | N[C@@H](Cc1c[nH]c2ccccc12)C(=O)O [Tryptophan] | 8974 | 78.0% | 7000 | 47.7% | 3243 | 0.0% | 0 | 100.0% | – | – | –
11 | N=C(N)NCCC[C@H](N)C(=O)O [Arginine] | 20698 | 76.7% | 15655 | 0.0% | 0 | 0.0% | 0 | 100.0% | – | – | –
12 | NC(=O)C[C@H](N)C(=O)O [Asparagine] | 25494 | 62.7% | 12115 | 0.0% | 0 | 0.0% | 0 | 100.0% | – | – | –
13 | CC(C)[C@H](N)C(=O)O [Valine] | 29804 | 56.7% | 12369 | 0.0% | 0 | 0.0% | 0 | 100.0% | – | – | –
14 | N[C@@H](CS)C(=O)O [Cysteine] | – | – | – | 0.0% | 0 | 0.0% | 0 | 100.0% | 39458 and 20358 | 25387 and 14715 | 60.4% and 61.4%
15 | CC[C@H](C)[C@H](N)C(=O)O [Isoleucine] | 15361 | 63.2% | 7533 | 33.8% | 4699 | 0.0% | 0 | 100.0% | – | – | –
16 | N[C@@H](CCC(=O)N[C@@H](CS)C(=O)NCC(=O)O)C(=O)O [Glutathione] | 13157 | 48.7% | 7747 | 0.0% | 0 | 0.0% | 0 | 100.0% | – | – | –
17 | O=C(O)[C@@H]1C[C@@H](O)CN1 [Hydroxyproline] | 13659 | 76.2% | 8540 | 34.2% | 3280 | 0.0% | 0 | 100.0% | – | – | –
